Test results as given in patent US6440401B1, “2-phenyl-benzimidazolesulfonic acids as UV-B filters” (Merck Patent Gesellschaft Mit Beschraenkter Haftung, priority 2000, dated 2002).

Assay: UV absorption maximum
Type: physicochemical
Procedure: 108 parts of o-phenylenediamine are introduced into 500 parts of H2SO4 (>96%) and then 800 parts of oleum (65%) are added dropwise, the temperature being maintained at a maximum of 120° C. After 15 min, the mixture is cooled to 70° C. and 120 parts of benzoic acid are added. The mixture is heated for 2 h at 180° C. The mixture is slowly hydrolysed with 2 500 parts of water, the temperature being maintained below 10° C. The precipitate (crystals) is filtered off with suction, the crude product is suspended in 8 parts of water and dissolved with 32% sodium hydroxide solution at pH=7. The solution is stirred with activated carbon until colorless, and thereafter precipitation is induced using 96% H2SO4 by establishing a pH=1-2. 300 parts of 2-phenylbenzimidazole-4,6-disulfonic acid are obtained. The compound has an absorption maximum in the UV-B region at λmax=308 nm.

## O=S(=O)(O)c1cc(S(=O)(=O)O)c2[nH]c(-c3ccccc3)nc2c1 [2-phenylbenzimidazole-4,6-disulfonic acid]
  absorption maximum in the UV-B region, λmax: 308 nm
